Test results as given in ChEMBL document CHEMBL3886653, “Cytomegalovirus inhibitor compounds” (2016).

These molecules were tested against T1, DNA polymerase catalytic subunit (Human cytomegalovirus (strain AD169) (HHV-5) (Human herpesvirus 5), UniProt P08546) (assay: HCMV Polymerase LANCE TR-FRET Assay: The assay conditions are the following: 10 mM HEPES pH 7.5, 25 mM KCl, 7.5 mM NaCl, 5 mM MgCl2, 0.2 mg BSA/mL, 1 mM TCEP, 1.5% glycerol, 5% DMSO, 235 nM dATP, 350 nM dCTP, 350 nM dGTP, 235 nM dTTP, 12 nM biotin-16-dUTP, 23.5 nM Dig-primer/template, 2 nM GST-UL54. The assay volume is 10 μL. Each reagent is added as follow: 4 μL a+3 μL b+3 μL c; a: compound diluted in compound dilution buffer to obtain 12.5% DMSO; b: enzyme (GST-UL54) in 10 mM Hepes pH 7.5, 25 mM KCl, 5 mM MgCl2, 25 mM NaCl, 5% Glycerol, 0.67 mg BSA/mL, 1 mM TCEP w/o DMSO (2 nM GST-UL54 is present in the assay); c: substrate in 10 mM HEPES pH 7.5, 25 mM KCl, 5 mM MgCl2, 1 mM TCEP, 783 nM dATP, 1166 nM dCTP, 1166 nM dGTP, 783 nM dTTP, 40 nM biotin-16-dUTP, 78 nM Dig-primer (5'-/Dig/AGC TCG TTT AGT GAA CC-3')/template (5'-GAGGTCAAAACAGCGTGGATGGCGTCTCCAGGCGATCTGACGGTTCACTAAACGAGCT-3') w/o DMSO. The primer and template are annealed in 10 mM Tris-HCl pH 7.5, 50 mM NaCl at a respective concentration of 50 μM. They are incubated at 95 °C. for 5 min in a dry batch block. The block is removed from the dry bath and allowed to cool to RT. Aliquots are made and stored at −20 °C. To perform the assay, 3 μL of the enzyme solution is added to columns 2-12 and 14-24. The enzyme is substituted by the blank solution (b solution without enzyme) for columns 1 and 13 (blanks). The plate is centrifuged at 200×g for 30 sec. 3 μL of substrate solution is added to each well. The plate is centrifuged at 200×g for 30 sec. Plates are incubated at 37 °C. for 30 min. 5 μL of conjugate solution is added (25 mM Hepes pH 7.5, 0.1 M NaCl, 0.25% Tween-20, 1 mg/mL BSA, 12 mM EDTA, 24 nM Sreptavidin-APC, 342 ng/mL Anti-Dig-Europium). The plates are incubated at RT for at least 120 min. The signal is read on the Envision plate reader (Perkin-Elmer) or equivalent.).
T1 sequence (P08546 whole entry): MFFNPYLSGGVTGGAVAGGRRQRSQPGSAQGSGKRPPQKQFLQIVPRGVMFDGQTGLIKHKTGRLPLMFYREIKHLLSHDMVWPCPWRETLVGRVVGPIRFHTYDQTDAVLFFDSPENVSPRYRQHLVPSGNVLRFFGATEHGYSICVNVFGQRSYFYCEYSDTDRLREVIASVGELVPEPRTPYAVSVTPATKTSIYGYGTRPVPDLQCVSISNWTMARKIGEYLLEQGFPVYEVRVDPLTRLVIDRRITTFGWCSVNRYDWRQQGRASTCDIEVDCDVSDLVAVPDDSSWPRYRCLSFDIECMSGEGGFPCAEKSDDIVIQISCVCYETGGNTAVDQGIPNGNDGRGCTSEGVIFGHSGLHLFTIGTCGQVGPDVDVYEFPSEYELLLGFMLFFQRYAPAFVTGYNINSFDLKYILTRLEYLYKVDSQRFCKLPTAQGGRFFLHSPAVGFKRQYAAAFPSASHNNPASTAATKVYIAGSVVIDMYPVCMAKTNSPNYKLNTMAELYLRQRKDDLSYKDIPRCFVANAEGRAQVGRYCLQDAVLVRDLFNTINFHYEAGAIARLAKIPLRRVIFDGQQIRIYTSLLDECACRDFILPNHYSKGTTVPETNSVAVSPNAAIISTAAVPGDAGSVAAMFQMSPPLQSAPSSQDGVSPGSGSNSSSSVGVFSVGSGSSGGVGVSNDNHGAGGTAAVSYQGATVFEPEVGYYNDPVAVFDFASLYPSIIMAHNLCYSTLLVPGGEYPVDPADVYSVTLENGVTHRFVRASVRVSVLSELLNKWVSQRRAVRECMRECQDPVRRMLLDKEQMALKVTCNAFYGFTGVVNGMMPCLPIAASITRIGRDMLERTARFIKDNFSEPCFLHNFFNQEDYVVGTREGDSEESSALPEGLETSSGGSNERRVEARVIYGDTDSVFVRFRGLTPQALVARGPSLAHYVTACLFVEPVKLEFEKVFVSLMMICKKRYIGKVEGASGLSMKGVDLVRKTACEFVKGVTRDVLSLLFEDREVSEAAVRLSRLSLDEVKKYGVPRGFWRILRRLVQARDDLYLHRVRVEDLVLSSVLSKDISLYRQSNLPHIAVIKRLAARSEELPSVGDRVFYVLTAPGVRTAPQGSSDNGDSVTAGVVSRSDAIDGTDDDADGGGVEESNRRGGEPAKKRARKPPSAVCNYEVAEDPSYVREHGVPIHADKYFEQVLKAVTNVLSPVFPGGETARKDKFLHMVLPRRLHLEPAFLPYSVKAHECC
For `CC1(C)CN(C(=O)Cn2c(=O)c(C(=O)NCc3ccc(Cl)cc3)cc3c(Oc4cccnc4)ccnc32)C1`, the IC50 was 280 nM. `COc1cc(N)nc2c1cc(C(=O)NCc1ccc(Cl)cc1)c(=O)n2CC(=O)N(C)CC1(CO)COC1` showed an IC50 of 22 nM. `Cc1noc(C2CCN(C(=O)Cn3c(=O)c(C(=O)NCc4ccc(Cl)cc4)cc4cccnc43)C2)n1` (centres undefined) showed an IC50 of 10000 nM. `Cn1nccc1Cc1cnc2c(c1)cc(C(=O)NCc1ccc(Cl)cc1)c(=O)n2CC(=O)N1CC(C)(C)C1` was tested, and the IC50 was 65 nM. With `NCC1CCN(C(=O)Cn2c(=O)c(C(=O)NCc3ccc(Cl)cc3)cc3cccnc32)C1` (centres undefined) the IC50 was 5600 nM. `CC1(F)CN(C(=O)Cn2c(=O)c(C(=O)NCc3ccc(C#N)cc3)cc3cc(-c4c[nH]cn4)cnc32)C1` gave an IC50 of 320 nM. Work on `CC(C)c1ccnc2c1cc(C(=O)NCc1ccc(Cl)cc1)c(=O)n2CC(=O)N1CC(C)(C)C1` yielded an IC50 of 200 nM. `CC1(C)CN(C(=O)Cn2c(=O)c(C(=O)NCc3ccc(Cl)cc3)cc3c(-c4cnc(N)nc4)ccnc32)C1` gave an IC50 of 71 nM. In the case of `COc1cc(CNC(=O)c2cc3cc(-c4cn(C)cn4)cnc3n(CC(=O)N3CC(C)(F)C3)c2=O)ccc1Cl`, the IC50 is reported as 400 nM. `CC1(C)CN(C(=O)Cn2c(=O)c(C(=O)NCc3ccc(Cl)cc3)cc3c(OC[C@@H]4CCC(=O)N4)ccnc32)C1` showed an IC50 of 62 nM. In the case of `NC(=O)[C@@H]1C[C@H](F)CN1C(=O)CCn1c(=O)c(C(=O)NCc2ccc(Cl)cc2)cc2cccnc21`, the IC50 is reported as 210 nM. In the case of `CN(CC(C)(C)CO)C(=O)Cn1c(=O)c(C(=O)NCc2ccc(Cl)cc2)cc2ccc(NC3CC3)nc21`, the IC50 is reported as 970 nM. In the case of `COCCNc1ccnc2c1cc(C(=O)NCc1ccc(Cl)cc1)c(=O)n2CC(=O)N1CC(C)(C)C1`, the IC50 is reported as 200 nM. Molecule `Cn1cc(-c2cnc3c(c2)cc(C(=O)NCc2ccc(Cl)cc2)c(=O)n3CC(=O)N2CC(F)(CF)C2)cn1` has an IC50 of 59 nM. For `Cn1cc(-c2cnc3c(cc(C(=O)NCc4ccc(Cl)cc4)c(=O)n3CC(=O)N3CC(C)(C)C3)c2N2CC(O)C2)cn1`, the IC50 was 180 nM. `COc1c(-c2cnn(C)c2)cnc2c1cc(C(=O)NCc1ccc(Cl)cc1)c(=O)n2CC(=O)N1CCC(CO)C1` (centres undefined) gave an IC50 of 140 nM. Molecule `CNc1ccc2cc(C(=O)NCc3ccc(Cl)cc3)c(=O)n(CC(=O)N3CC(C)(O)C3)c2n1` has an IC50 of 120 nM. For `CC1CN(C(=O)Cn2c(=O)c(C(=O)NCc3ccc(Cl)cc3)cc3c(-c4cnc(N)nc4)c(-c4cnn(C)c4)cnc32)C1`, the IC50 was 120 nM. With `COc1c(-c2sc(C)nc2C)cnc2c1cc(C(=O)NCc1ccc(Cl)cc1)c(=O)n2CC(=O)N1CC(C)(C)C1` the IC50 was 1200 nM. With `Cc1cc(Nc2cnc3c(c2)cc(C(=O)NCc2ccc(Cl)cc2)c(=O)n3CC(=O)N2CC(C)(C)C2)n(C)n1` the IC50 was 180 nM. For `CC1CN(C(=O)Cn2c(=O)c(C(=O)NCc3ccc(Cl)cc3)cc3cc(OCC4(C#N)CC4)cnc32)C1`, the IC50 was 170 nM. Work on `Cn1cnc(-c2cc3cc(C(=O)NCc4ccc(Cl)cc4)c(=O)n(CC(=O)N4CC(C)(F)C4)c3nc2N)c1` yielded an IC50 of 77 nM. For `CC1(C)CN(C(=O)Cn2c(=O)c(C(=O)NCc3ccc(Cl)cc3)cc3cc(-c4nn[nH]n4)cnc32)C1`, the IC50 was 30 nM. `CS(=O)(=O)C1CN(C(=O)Cn2c(=O)c(C(=O)NCc3ccc(Cl)cc3)cc3cccnc32)C1` gave an IC50 of 17000 nM. In the case of `Cn1cc(-c2cc3cc(C(=O)NCc4ccc(Cl)cc4)c(=O)n(CC(=O)N4CC(C)(O)C4)c3nc2N)cn1`, the IC50 is reported as 110 nM. `Cc1nc(-c2cnc3c(c2)cc(C(=O)NCc2ccc(Cl)cc2)c(=O)n3CC(=O)N2CC(C)(C)C2)cn1C` was tested, and the IC50 was 130 nM. For `CC1(C)CN(C(=O)Cn2c(=O)c(C(=O)NCc3ccc(Cl)cc3)cc3c(CCN4CCC4)ccnc32)C1`, the IC50 was 280 nM. `CCn1cc(-c2c(O)cnc3c2cc(C(=O)NCc2ccc(Cl)cc2)c(=O)n3CC(=O)N2CC(C)(C)C2)cn1` showed an IC50 of 160 nM. Molecule `CN(CC(=O)O)c1ccnc2c1cc(C(=O)NCc1ccc(Cl)cc1)c(=O)n2CC(=O)N1CC(C)(C)C1` has an IC50 of 50 nM. Molecule `CN(C(=O)Cn1c(=O)c(C(=O)NCc2ccc(Cl)cc2)cc2cccnc21)C1CC(O)C1` (centres undefined) has an IC50 of 220 nM. `CC(=O)NC1CCN(c2cnc3c(c2)cc(C(=O)NCc2ccc(Cl)cc2)c(=O)n3CC(=O)N2CC(C)(C)C2)C1` (centres undefined) was tested, and the IC50 was 190 nM. `Cn1cnc(-c2cnc3c(c2)cc(C(=O)NCc2ccc(Cl)cc2)c(=O)n3CC(=O)N2CC(C)(F)C2)c1` showed an IC50 of 120 nM. `CC1(C)CN(C(=O)Cn2c(=O)c(C(=O)NCc3ccc(Cl)cc3)cc3cc(CN4CCNC(C(F)(F)F)C4)cnc32)C1` (centres undefined) showed an IC50 of 74 nM. For `CC1(C)CN(C(=O)Cn2c(=O)c(C(=O)NCc3ccc(Cl)cc3)cc3cc(C(=O)NCc4cnccn4)cnc32)C1`, the IC50 was 65 nM. In the case of `CN(CC(C)(C)CO)C(=O)Cn1c(=O)c(C(=O)NCc2ccc(Cl)cc2)cc2ccc(-c3cn[nH]c3)nc21`, the IC50 is reported as 1000 nM. For `O=C(NCc1ccc(Cl)cc1)c1cc2cccnc2n(CC(=O)N2CC3(CC3)C2)c1=O`, the IC50 was 280 nM.

Each molecule was assayed against T1, DNA polymerase catalytic subunit (assay: HCMV Polymerase Scintillation Proximity Assay: The assay conditions are the following: 10 mM HEPES pH 7.5, 25 mM KCl, 7.5 mM NaCl, 5 mM MgCl2, 0.2 mg BSA/mL, 1 mM TCEP, 1.5% glycerol, 2 μM dTTP, 90 nM 3H-dTTP (minor variations in concentration are possible due to specific activity of stock), 26 nM Poly(dA)/190 nM BioTEG-dT19; 5% DMSO. The assay volume is 30 μL. Each reagent is added at a 3× conc.: 10 μL a+10 μL b+10 μL c; a: compound diluted in 10 mM Hepes pH 7.5, 25 mM KCl, 5 mM MgCl2, 1 mM TCEP with 15% DMSO; b: enzyme (GST-UL54) in 10 mM Hepes pH 7.5, 25 mM KCl, 5 mM MgCl2, 22.5 mM NaCl, 4.5% Glycerol, 0.6 mg BSA/mL, 1 mM TCEP w/o DMSO (1 nM GST-UL54 is present in the assay); c: substrate in 10 mM Hepes pH 7.5, 25 mM KCl, 5 mM MgCl2, 1 mM TCEP, 6 μM dTTP, 270 nM 3H-dTTP, 78 nM Poly(dA)/570 nM BioTEG-dT19 w/o DMSO. To perform the assay, 10 μL enzyme solution is added to columns 2-12 and 14-24. The enzyme is substituted by the blank solution (b solution without enzyme) for columns 1 and 13 (blanks). The plate is centrifuged at 200×g for 30 sec. 10 μL of substrate solution is added to each well. The plate is centrifuged at 200×g for 30 sec. The plates are incubated at 37 °C. for 40 min. To stop the reaction, 25 μL of SPA beads (5 mg/mL in 0.5 M EDTA) are added and mixed by pipetting up and down. The plates are incubated at RT for at least 15 min. 35 μL of 5 M CsCl is added to the bottom of each well. TopSeal is applied to the plate and the plate is incubated at RT for at least 90 min prior to reading. The signal is read on TopCount plate reader (Perkin-Elmer) or equivalent.).
In the case of `O=C(NCc1ccc(Cl)cc1)c1cc2cccnc2n(CC(=O)N2CCCOCC2)c1=O`, the IC50 is reported as 16000 nM. `CC1(C)CN(C(=O)Cn2c(=O)c(C(=O)NCc3ccc(Cl)c(C(F)(F)F)c3)cc3cccnc32)C1` gave an IC50 of 38000 nM. `CC1(C)CN(C(=O)Cn2c(=O)c(C(=O)NCc3ccc(Cl)c(Cl)c3)cc3cccnc32)C1` gave an IC50 of 14000 nM.
